Results from PMC9006239, “Synthesis of potent and selective HDAC6 inhibitors led to unexpected opening of a quinazoline ring” (RSC Advances, 2022).
Where two headings read alike, the source gives them in different places.

Experiments:
[1] = test system: HDAC6; settings: cited from earlier work
[2] = biological target: T1, human HDAC8 (Homo sapiens, UniProt Q9BY41); assay: In vitro inhibitory activity on purified recombinant HDAC8 (fluorogenic peptide assay, Reaction Biology Corp.)
T1 sequence (Q9BY41 1-377): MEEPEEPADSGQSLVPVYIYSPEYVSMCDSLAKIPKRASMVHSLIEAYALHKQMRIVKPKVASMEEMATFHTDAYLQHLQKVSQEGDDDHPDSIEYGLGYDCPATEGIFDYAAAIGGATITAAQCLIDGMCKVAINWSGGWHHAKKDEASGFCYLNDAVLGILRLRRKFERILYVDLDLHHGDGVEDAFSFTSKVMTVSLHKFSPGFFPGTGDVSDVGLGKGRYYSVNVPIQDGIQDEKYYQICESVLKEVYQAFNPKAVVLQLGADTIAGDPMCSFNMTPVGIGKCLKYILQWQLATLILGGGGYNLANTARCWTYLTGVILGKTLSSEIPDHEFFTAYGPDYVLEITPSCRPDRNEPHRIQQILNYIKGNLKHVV
Protocol: (§1) In vitro tests on HDAC6, HDAC1 and HDAC8 were performed at Reaction Biology Corp. with modalities described below. […] The compounds were dissolved in DMSO and tested with 3-fold serial dilution starting from 100 μM. The enzymatic assays were performed by adding HDAC6 and the ligand solutions in the reaction buffer described above. […] IC50 values were calculated by using the GraphPad Prism 4 program based on a sigmoidal dose–response equation. The blank (DMSO) value concentration was entered as 1.00 × 10^−12 M for curve fitting.
(§2) using the GraphPad Prism4 program based on a sigmoidal dose-response equation.

[3] = biological target: T2, human HDAC6 (Homo sapiens, UniProt Q9UBN7); assay: In vitro inhibitory activity on purified recombinant HDAC6 (fluorogenic peptide assay, Reaction Biology Corp.); assay type: biochemical; settings: for selectivity for HDAC6 with respect to HDAC1: HDAC6 vs HDAC1, from the IC50 values of Table 2; for selectivity for HDAC6 with respect to HDAC8: HDAC6 vs HDAC8, from the IC50 values of Table 2; for IC50: purified recombinant enzyme, RHKK-Ac-AMC substrate, singlet 10-dose, 3-fold serial dilution
T2 construct: purchased Reaction Biology Corp. (contract assay)
T2 sequence (Q9UBN7 1-1215): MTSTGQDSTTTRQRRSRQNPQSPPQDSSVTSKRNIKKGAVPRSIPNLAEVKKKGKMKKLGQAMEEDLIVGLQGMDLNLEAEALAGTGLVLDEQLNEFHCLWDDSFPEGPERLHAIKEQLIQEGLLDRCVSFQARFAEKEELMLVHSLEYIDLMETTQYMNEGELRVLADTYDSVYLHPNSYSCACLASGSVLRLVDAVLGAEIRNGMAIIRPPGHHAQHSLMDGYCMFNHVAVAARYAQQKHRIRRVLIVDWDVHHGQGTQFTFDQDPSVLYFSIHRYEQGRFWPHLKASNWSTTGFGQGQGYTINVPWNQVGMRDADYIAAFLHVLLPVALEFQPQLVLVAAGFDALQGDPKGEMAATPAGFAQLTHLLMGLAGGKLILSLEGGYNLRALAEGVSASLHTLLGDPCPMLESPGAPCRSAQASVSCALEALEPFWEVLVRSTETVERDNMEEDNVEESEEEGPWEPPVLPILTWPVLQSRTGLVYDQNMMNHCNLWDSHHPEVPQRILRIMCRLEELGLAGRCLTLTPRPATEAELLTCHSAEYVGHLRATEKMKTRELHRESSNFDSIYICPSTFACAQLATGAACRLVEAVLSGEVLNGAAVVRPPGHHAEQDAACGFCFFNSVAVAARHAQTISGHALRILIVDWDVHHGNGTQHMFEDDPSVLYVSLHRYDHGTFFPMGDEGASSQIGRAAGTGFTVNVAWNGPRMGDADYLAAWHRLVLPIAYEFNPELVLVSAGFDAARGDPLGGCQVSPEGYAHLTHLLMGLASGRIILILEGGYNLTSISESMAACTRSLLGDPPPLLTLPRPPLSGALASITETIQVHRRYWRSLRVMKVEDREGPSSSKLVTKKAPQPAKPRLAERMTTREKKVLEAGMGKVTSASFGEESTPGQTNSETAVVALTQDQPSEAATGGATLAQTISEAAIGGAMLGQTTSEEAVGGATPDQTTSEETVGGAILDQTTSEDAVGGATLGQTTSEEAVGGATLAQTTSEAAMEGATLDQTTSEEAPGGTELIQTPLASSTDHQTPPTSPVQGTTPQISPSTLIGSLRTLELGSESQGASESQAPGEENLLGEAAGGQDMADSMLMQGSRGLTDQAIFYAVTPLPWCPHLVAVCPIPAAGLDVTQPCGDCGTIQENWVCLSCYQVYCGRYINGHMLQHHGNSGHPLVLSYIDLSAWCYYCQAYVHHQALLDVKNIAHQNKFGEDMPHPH
Protocol: Figure S1. […] All compounds were tested in singlet
IC50 values were calculated
Figure S2. […] All compounds were tested in singlet
Figure S3. […] All compounds were tested in singlet

[4] = biological target: human HDAC1 (Homo sapiens, UniProt Q13547); assay: In vitro inhibitory activity on purified recombinant HDAC1 (fluorogenic peptide assay, Reaction Biology Corp.)
Sequence of human HDAC1 (Q13547 whole entry): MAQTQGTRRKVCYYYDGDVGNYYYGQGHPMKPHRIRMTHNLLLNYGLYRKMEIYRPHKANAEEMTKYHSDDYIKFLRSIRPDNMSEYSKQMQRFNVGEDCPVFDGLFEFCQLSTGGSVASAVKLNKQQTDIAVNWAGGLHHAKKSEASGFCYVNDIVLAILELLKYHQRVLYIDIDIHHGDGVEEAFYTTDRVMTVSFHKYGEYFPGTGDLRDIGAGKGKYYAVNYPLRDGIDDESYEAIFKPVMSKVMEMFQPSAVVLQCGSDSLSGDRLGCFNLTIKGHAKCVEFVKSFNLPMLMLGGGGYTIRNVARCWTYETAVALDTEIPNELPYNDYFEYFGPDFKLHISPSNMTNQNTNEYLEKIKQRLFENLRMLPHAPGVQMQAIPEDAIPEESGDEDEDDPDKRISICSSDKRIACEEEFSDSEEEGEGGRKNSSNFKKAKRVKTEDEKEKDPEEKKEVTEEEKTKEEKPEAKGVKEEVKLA
Protocol: as §1, §2

[5] = known quinazoline-capped inhibitors, Fig. 1

| Compound | IC50 [1, 5] [nM] | IC50 [2] [nM] | selectivity for HDAC6 with respect to HDAC1 [3] | selectivity for HDAC6 with respect to HDAC8 [3] | IC50 [3] [nM] | melting point | IC50 [4] [nM] | also measured |
| --- | --- | --- | --- | --- | --- | --- | --- | --- |
| COc1ccc(N(C)c2nc(C)nc3ccccc23)cc1OCCCC(=O)NO [Compound 1] | 17 | – | – | – | – | – | – | – |
| COc1ccc(N(C)c2nc(C)nc3ccccc23)cc1NC(=O)CCC(=O)NO [Compound 2] | 16 | – | – | – | – | – | – | – |
| COc1ccc(N(C)c2nc(C)nc3ccccc23)cc1NC(=O)CCCC(=O)NO [Compound 3] | 35 | – | – | – | – | – | – | – |
| COc1cc2nc(NCCCCCCC(=O)NO)nc(NC3CCN(C(C)C)CC3)c2cc1OC [Compound 5] | – | – | – | – | – | – | – | IC50 ([1]; most active quinazoline inhibitor reported so far): 12 nM |
| Nc1nc2c3ccc(Cc4ccc(C(=O)NO)cc4)cc3nc(Cc3ccc4c(c3)OCO4)n2n1 [Compound 11a, 4-((2-Amino-5-(benzo[d][1,3]dioxol-5-ylmethyl)-[1,2,4]triazolo[1,5-c]quinazolin-8-yl)methyl)-N-hydroxybenzamide] | – | 653 | more than 12 000 fold | > 1000 fold | 0.5 | < 267 °C (dec.) | 6080 | – |
| Nc1n[nH]c(-c2cc(Cc3ccc(C(=O)NO)cc3)ccc2NC(=O)Cc2ccc3c(c2)OCO3)n1 [Compound 18, 4-(3-(3-Amino-1H-1,2,4-triazol-5-yl)-4-(2-(benzo[d][1,3]dioxol-5-yl)acetamido)benzyl)-N-hydroxybenzamide] | – | 1560 | > 18 000 fold | > 15 000 fold | 0.1 | < 264 °C (dec.) | 1820 | – |
